Substitutions are numbered along the chain they refer to. Names may count otherwise. “And” between values parts separate entries of the source, which are not always exact repeats. Equal values may be shown once. Ends that are not written are not given here. Peptide text beside a SMILES is read from it.
How the values were obtained:
Fnq26 = target: T1, Fnq26 (Streptomyces virginiae, UniProt A2AXG5); settings: Aromatic C10 O-prenylation; cited from earlier work
T1 sequence (A2AXG5 1-300): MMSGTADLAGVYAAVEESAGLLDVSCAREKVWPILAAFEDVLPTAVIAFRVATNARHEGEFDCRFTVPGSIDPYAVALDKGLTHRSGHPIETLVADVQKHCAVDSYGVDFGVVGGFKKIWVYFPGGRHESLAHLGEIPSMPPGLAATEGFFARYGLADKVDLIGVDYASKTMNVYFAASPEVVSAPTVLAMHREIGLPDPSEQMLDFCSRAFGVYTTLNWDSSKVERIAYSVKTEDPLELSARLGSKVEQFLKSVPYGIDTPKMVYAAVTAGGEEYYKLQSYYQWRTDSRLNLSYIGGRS

LimF [1] = experiment: His-prenylation of low molecular weight compounds, peptides and proteins by LimF; format: biochemical, Limnothrix sp. CACIAM 69d; settings: 100 μM LimF, 2 mM GPP, 20 hours; for His-prenylation efficiency (LC/MS): standard conditions
Description: Next, various low molecular weight compounds, peptides, and proteins, including various compounds that have already been approved as pharmaceuticals, were subjected to His-prenylation facilitated by LimF.

PagF = settings: Tyr C5 O-prenylation; cited from earlier work
PirF = settings: Tyr C10 O-prenylation; cited from earlier work
LimF [2] = experiment: Steady-state kinetics of prenylation facilitated by LimF (wild type); format: biochemical, Limnothrix sp. CACIAM 69d; settings: Tyr-prenylation (C10 O-), 5 μM LimF, 16° C.
Protocol: Under optimal conditions, the steady-state kinetic parameters of the prenylation reaction of bcLimE2 facilitated by LimF were measured by the methods described below.
The concentration dependence of GPP and MgCl2 in bcLimE2 prenylation reactions facilitated by LimF was measured in reaction systems containing 1 μM LimF, 1 mM or a suitably modified concentration of GPP, 50 mM HEPES pH 7.2, 0.4 mM substrate, 1 mM DTT, and 40 mM or a suitably modified concentration of MgCl2. A reaction solution containing components other than GPP was prepared and preheated to 25° C., and the reaction was then started by adding GPP. After incubating at 25° C., the reaction was stopped at each point and analyzed by LC-MS. Next, the initial rate was calculated as the slope of increase in the amount of prenylation product produced in the linear region. Three separate reactions were carried out under each condition and the mean and standard deviation of the results were used for the analysis.
For GPP concentration dependence and peptide substrate concentration dependence, the kinetic parameters were estimated by fitting the initial rate and GPP substrate concentration or peptide substrate concentration to the Michaelis-Menten model in Graphpad Prism 8.4.2 (GraphPad Prism Software Inc., San Diego, California) software.
Kinetic parameters of the His-prenylation reaction facilitated by LimF were determined based on reactions under optimal conditions using substrates of different concentrations. For the Tyr-prenylation described below, the kinetic parameters were measured under the same conditions except that LimF was set to 5 μM and the reaction temperature was set to 16° C. In order to estimate the kinetic parameters, the initial rate and substrate concentration were fitted to the Michaelis-Menten model in Graphpad Prism 8.4.2 software.
In order to further evaluate the two different prenylation modes by LimF, two teMPs (teR6-H5A/Y7H and teR6-H5A) that undergo efficient His-prenylation and Tyr-prenylation, respectively, were designed and chemically synthesized. Kinetic analysis was carried out according to the above method using these peptides.
Target sequence in this assay (as listed by the source): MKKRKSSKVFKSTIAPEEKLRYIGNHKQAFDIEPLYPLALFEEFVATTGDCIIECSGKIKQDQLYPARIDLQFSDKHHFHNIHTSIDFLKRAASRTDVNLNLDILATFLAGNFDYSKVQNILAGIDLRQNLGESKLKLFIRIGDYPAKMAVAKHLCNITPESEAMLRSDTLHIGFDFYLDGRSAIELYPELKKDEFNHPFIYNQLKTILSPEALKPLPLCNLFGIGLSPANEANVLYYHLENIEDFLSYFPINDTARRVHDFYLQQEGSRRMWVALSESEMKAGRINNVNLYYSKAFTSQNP

bcLimE2 [3] = target: T2, bcLimE2
T2 chain: RYPHEEIP

bcLimE2 [4] = experiment: Prenyl group donor tolerance of LimF variants (conversion of bcLimE2); format: biochemical; set-up: key to Final Conversion Efficiency: “n.r.” indicates that the reaction did not proceed; settings: for Final Conversion Efficiency: substrate bcLimE2
Protocol: An attempt was made to change the selectivity of LimF with respect to prenyl group donors examined in “2. Evaluation of Enzymatic Activity of LimF” by introducing a mutation into LimF. […], illustrated in FIG. 7(a), was used as the substrate.
(§1) For the assay of LimF variants, 100 μM bcLimE2 was incubated individually at a 5 μL scale with 20 to 100 μM LimF variants under conditions of 1 mM GPP or DMAPP, 50 mM HEPES (pH 7.2), 40 mM MgCl2, 1 mM DTT, and DMSO (4%, v/v). After incubating for 16 hours at 25° C., the reaction was stopped by adding 9 times the amount (45 μL) of a 1% TFA aqueous solution. Next, the mixture was incubated on ice for 10 minutes, a precipitate was separated by centrifugation at 4° C. (15300×g, 10 minutes), and 1 μL of supernatant was subjected to LC-MS analysis.
An amino acid forming a small pocket that stores a prenyl group in the crystal structure was selected for the introduction site of the LimF mutation. Specifically, Gly at position 224 was selected, and this was substituted with a larger amino acid. […] This alignment supports the hypothesis that the 224th Gly contributes to prenyl group selectivity.
as §1, with “[…]” for “5 μL”, “or FPP,” for “or DMAPP,”, “7.2), 5” for “7.2), 40”, “([…])” for “(45 μL)”
An amino acid forming a small pocket that stores a prenyl group in the crystal structure was selected for the introduction site of the LimF mutation. Specifically, the amino acids at the positions described in the table in the left column of FIG. 19 were replaced with relatively small Ala.
Therefore, substitution of amino acids other than Ala with respect to the W273 position was comprehensively performed (middle column of FIG. 19). As a result, The mutation for W273N and W273T are focused, and in addition to the W273N mutation and the W273T mutation, simultaneous substitution with various amino acids was performed for His at 239, which is an amino acid adjacent to position 273 (right column of FIG. 19).

Molecule: O=C(O)c1ccc(O)cc1 [4-hydroxy-benzoate]
- Kcat (Fnq26): 0.00233 s⁻¹
- Km (Fnq26): 5600 µM

Molecule: CCCC[C@H](NC(C)=O)C(=O)N[C@H]1CC(=O)NCCCC[C@@H](C(=O)O)NC(=O)[C@H](Cc2c[nH]c3ccccc23)NC(=O)[C@H](CCCN=C(N)N)NC(=O)[C@@H](Cc2ccccc2)NC(=O)[C@H](Cc2cnc[nH]2)NC1=O [Bremelanotide, Ac-Nle-Asp(1)-His-D-Phe-Arg-Trp-Lys(1)-OH]
- His-prenylation efficiency (LC/MS) (LimF [1]; 500 μM substrate): 1%

Molecule: CN/C(=N\C#N)NCCSCc1nc[nH]c1C [Cimetidine, cimetidine]
- prenylation of His residue or imidazole C2 carbon by LimF (in words) (LimF [1]): very high efficiency
- His-prenylation efficiency (LC/MS) (LimF [1]; 500 μM substrate): 97%

Molecule: CCNC(=O)[C@@H]1CCCN1C(=O)[C@H](CCCNC(=N)N)NC(=O)[C@H](CC(C)C)NC(=O)[C@@H](Cc1cn(Cc2ccccc2)cn1)NC(=O)[C@H](Cc1ccc(O)cc1)NC(=O)[C@H](CO)NC(=O)[C@H](Cc1c[nH]c2ccccc12)NC(=O)[C@H](Cc1cnc[nH]1)NC(=O)[C@@H]1CCC(=O)N1 [Histrelin, H-Pyr-His-Trp-Ser-Tyr-D-His(1-Bn)-Leu-Arg-Pro-NHEt]
- prenylation of His residue or imidazole C2 carbon by LimF (in words) (LimF [1]): very high efficiency
- His-prenylation efficiency (LC/MS) (LimF [1]; 500 μM substrate): 99%

Molecule: NC(=O)[C@@H]1CCCN1C(=O)[C@H](Cc1cnc[nH]1)NC(=O)[C@@H]1CCC(=O)N1 [TRH]
- His-prenylation efficiency (LC/MS) (LimF [1]; 500 μM substrate): 15%

Molecule: N[C@@H](Cc1ccc(O)cc1)C(=O)N[C@@H](Cc1ccc(O)cc1)C(=O)N[C@@H](Cc1ccc(O)cc1)C(=O)O [YYY] (H-Tyr-Tyr-Tyr-OH)
- Kcat (PagF): 0.0967 s⁻¹
- Km (PagF): 160 µM

Molecule: O=C1C(O)=CC(=O)c2c(O)cc(O)cc21 [flaviolin]
- Kcat (Fnq26): 0.000217 s⁻¹
- Km (Fnq26): 21 µM

Molecule: Aviptadil: synthetic vasoactive intestinal polypeptide (HSDAVFTDNYTRLRKQMAVKKYLNSILN; Aviptadil)
- His-prenylation efficiency (LC/MS) (LimF [1]; 125 μM substrate): about 90%
- His-prenylation efficiency (LC/MS) (LimF [1]; 125 μM substrate, listed as Avipt ?): 90%

Molecule: Cyclo(-Ser-Asn-Leu-Ser-Thr-Asu)-Val-Leu-Gly-Lys-Leu-Ser-Gln-Glu-Leu-His-Lys-Leu-Gln-Thr-Tyr-Pro-Arg-Thr-Asp-Val-Gly-Ala-Gly-Thr-Pro-NH2 [Elcatonin]
- His-prenylation efficiency (LC/MS) (LimF [1]; 125 μM substrate): 5%

Molecule: H-Asp-Arg-Val-Tyr-Ile-His-Pro-Phe-OH [ANGIOTENSIN II]
- His-prenylation efficiency (LC/MS) (LimF [1]; 500 μM substrate): 1%

Molecule: H-Pyr-His-Trp-Ser-Tyr-D-Leu-Leu-Arg-Pro-NHEt [Leoprorelin]
- prenylation of His residue or imidazole C2 carbon by LimF (in words) (LimF [1]): very high efficiency
- His-prenylation efficiency (LC/MS) (LimF [1]; 500 μM substrate): 99%

Molecule: Insulin
- His-prenylation efficiency (LC/MS) (LimF [1]; 500 μM substrate): 5%

Molecule: MSGVDYYNPFAGDDAE
- Kcat (PirF): 0.0183 s⁻¹
- Km (PirF): 118 µM

Molecule: Pramlintide: analog of amylin (KCNTATCATQRLANFLVHSSNNFGPILPPTNVGSNTY; Pramlintide)
- prenylation of His residue or imidazole C2 carbon by LimF (in words) (LimF [1]): very high efficiency
- His-prenylation efficiency (LC/MS) (LimF [1]; 125 μM substrate): 99%

Molecule: Teduglutide (HGDGSFSDEMNTILDNLAARDFINWLIQTKITD; chains of the INN, looked up)
- prenylation of His residue or imidazole C2 carbon by LimF (in words) (LimF [1]): very high efficiency
- His-prenylation efficiency (LC/MS) (LimF [1]; 125 μM substrate): 50%

Molecule: Trp-His-Trp-Leu-Gln-Leu-Lys-Pro-Gly-Gln-Pro-Met-Tyr-OH (WHWLQLKPGQPMY-OH) [α-mating factor, cell signaling peptide for yeast]
- His-prenylation efficiency (LC/MS) (LimF [1]; 500 μM substrate): 39%

Molecule: cyclo[MSGVDYYNP] (head-to-tail cyclized)
- Kcat (PirF): 0.0117 s⁻¹
- Km (PirF): 116 µM

Molecule: tecyclo[DFRGNATYIPC] [teR6-H5A]
- Kcat (LimF [2]): 0.0167 s⁻¹ and 0.0167 ± 0.0017 s⁻¹
- Km (LimF [2]): 7300 ± 1800 µM
- Kcat (LimF [2]; listed as tecyclo[DFRGNATYIPC]): 0.0167 s⁻¹

Molecule: tecyclo[wAVSNLPPRPHITYIEC]S [PBm1]
- prenylation of His residue or imidazole C2 carbon by LimF (in words) (LimF [1]): very high efficiency
- His-prenylation efficiency (LC/MS) (LimF [1]; 500 μM substrate): 99%

B1: LimF-H239G/W273T (protein)
chain: MKKRKSSKVFKSTIAPEEKLRYIGNHKQAFDIEPLYPLALFEEFVATTGDCIIECSGKIKQDQLYPARIDLQFSDKHHFHNIHTSIDFLKRAASRTDVNLNLDILATFLAGNFDYSKVQNILAGIDLRQNLGESKLKLFIRIGDYPAKMAVAKHLCNITPESEAMLRSDTLHIGFDFYLDGRSAIELYPELKKDEFNHPFIYNQLKTILSPEALKPLPLCNLFGIGLSPANEANVLYYGLENIEDFLSYFPINDTARRVHDFYLQQEGSRRMTVALSESEMKAGRINNVNLYYSKAFTSQNP
- KM (mM), kinetics of prenylation of bcLimE2 with FPP as prenyl group donor (bcLimE2 [3]): 0.62 mM
- KM (mM), kinetics of prenylation of bcLimE2 with GPP as prenyl group donor (bcLimE2 [3]): 0.58 mM
- C15 prenylation (farnesylation) selectivity and efficiency (bcLimE2 [4]; 100 μM bcLimE2, 1 mM GPP or FPP, 5 mM MgCl2, 16 hours, 25° C.): high selectivity and high efficiency
- Final Conversion Efficiency (bcLimE2 [4]; prenyl group donor DMAPP): n.r.
- Final Conversion Efficiency (bcLimE2 [4]; prenyl group donor FPP): >99%
- Final Conversion Efficiency (bcLimE2 [4]; prenyl group donor GGPP): n.r.
- Final Conversion Efficiency (bcLimE2 [4]; prenyl group donor GPP): 16.9%

B2: wt-LimF: prenyltransferase derived from Limnothrix sp. CACIAM 69d, SEQ ID NO: 1 (protein, listed as Limnothrix sp.)
chain: B1 chain with G239H, T273W
modifications: CACIAM 69d
- Final Conversion Efficiency (bcLimE2 [4]; prenyl group donor DMAPP): n.r.
- Final Conversion Efficiency (bcLimE2 [4]; prenyl group donor FPP): 0.0027%
- Final Conversion Efficiency (bcLimE2 [4]; prenyl group donor GGPP): n.r.
- Final Conversion Efficiency (bcLimE2 [4]; prenyl group donor GPP): >99%
